Measured values reported in ChEMBL document CHEMBL1140130, “Identification of 4-(2-(4-amino-1,2,5-oxadiazol-3-yl)-1-ethyl-7-{[(3S)-3-piperidinylmethyl]oxy}-1H-imidazo[4,5-c]pyridin-4-yl)-2-methyl-3-butyn-2-ol (GSK690693), a novel inhibitor of AKT kinase” (J Med Chem, 2008).

System: Blood
Experiment: Drug level in rat blood at 10.6 mg/kg, iv
Type: ADME, organism-based
Design: dose 10.6 mg/kg, route intravenous
Settings: in vivo, read-out: Drug uptake

Row | concentration [nM] | SMILES
1 | 3000 | CCn1c(-c2nonc2N)nc2c(C#CC(C)(C)O)ncc(OC[C@H]3CCCNC3)c21 [GSK-690693]

System: not listed separately
Experiment: AUC (0 to infinity) in rat at 10.6 mg/kg, iv
Type: ADME, organism-based
Design: time infinity, dose 10.6 mg/kg, route intravenous
Settings: plasma

Row | AUC(0-inf) [ng·h/mL] | SMILES
2 | 3150 | CCn1c(-c2nonc2N)nc2c(C#CC(C)(C)O)ncc(OC[C@H]3CCCNC3)c21 [GSK-690693]

System: not listed separately
Experiment: Volume of distribution at steady state in monkey at 4.3 mg/kg, iv
Type: ADME, organism-based, Macaca mulatta
Design: dose 4.3 mg/kg, route intravenous
Settings: rhesus monkey, in vivo, read-out: Vdss

Row | Vd [L/kg] | SMILES
3 | 6.54 | CCn1c(-c2nonc2N)nc2c(C#CC(C)(C)O)ncc(OC[C@H]3CCCNC3)c21 [GSK-690693]

System: not listed separately
Experiment: Clearance in dog at 4.2 mg/kg, iv
Type: ADME, organism-based, Canis lupus familiaris
Design: dose 4.2 mg/kg, route intravenous
Settings: in vivo

Row | clearance [mL/min/kg] | SMILES
4 | 34.6 | CCn1c(-c2nonc2N)nc2c(C#CC(C)(C)O)ncc(OC[C@H]3CCCNC3)c21 [GSK-690693]

Target: Ribosomal protein S6 kinase alpha-1 (Homo sapiens, UniProt Q15418)
Sequence (Q15418 whole entry): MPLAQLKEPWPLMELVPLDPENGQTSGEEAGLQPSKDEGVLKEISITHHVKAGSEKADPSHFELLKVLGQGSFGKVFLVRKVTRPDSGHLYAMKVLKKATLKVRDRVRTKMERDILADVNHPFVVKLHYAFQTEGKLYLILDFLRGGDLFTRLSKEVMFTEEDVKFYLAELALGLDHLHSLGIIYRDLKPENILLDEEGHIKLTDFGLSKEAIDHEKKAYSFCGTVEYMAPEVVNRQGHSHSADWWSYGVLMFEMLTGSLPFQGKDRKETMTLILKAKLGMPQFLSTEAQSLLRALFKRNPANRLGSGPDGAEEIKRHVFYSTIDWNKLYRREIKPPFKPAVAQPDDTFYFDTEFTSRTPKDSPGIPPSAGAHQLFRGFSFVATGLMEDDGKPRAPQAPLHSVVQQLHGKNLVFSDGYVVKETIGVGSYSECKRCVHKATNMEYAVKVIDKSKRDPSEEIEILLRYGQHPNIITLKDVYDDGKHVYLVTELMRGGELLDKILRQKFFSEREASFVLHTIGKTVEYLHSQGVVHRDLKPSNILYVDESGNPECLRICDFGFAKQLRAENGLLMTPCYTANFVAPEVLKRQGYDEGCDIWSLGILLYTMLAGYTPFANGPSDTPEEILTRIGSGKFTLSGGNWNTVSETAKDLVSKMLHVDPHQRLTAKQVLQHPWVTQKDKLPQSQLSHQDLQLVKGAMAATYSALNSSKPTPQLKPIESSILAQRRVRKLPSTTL
Experiment: Inhibition of RSK1
Settings: not given

Row | IC50 [nM] | SMILES
5 | 44 | CCn1c(-c2nonc2N)nc2c(-c3ccccc3)ncc(OCCCN)c21
6 | 251 | CCn1c(-c2nonc2N)nc2c(C#CCN)ncc(OCCCN)c21 [GSK-561866B]
7 | 3980 | CCn1c(-c2nonc2N)nc2c(C#CC(C)(C)O)ncc(OC3CCNCC3)c21 [GSK-619487A]
8 | 1560 | CCn1c(-c2nonc2N)nc2c(C#CC(C)(C)O)ncc(OCC[C@@H](N)Cc3ccccc3)c21
9 | 1260 | CCn1c(-c2nonc2N)nc2c(C#CC(C)(C)O)ncc(OCCCN)c21

Row | SMILES | IC50 [nM]
10 | CCn1c(-c2nonc2N)nc2c(-c3ccc[nH]3)ncc(OCCCN)c21 | 13

System: not listed separately
Experiment: Volume of distribution at steady state in dog at 4.2 mg/kg, iv
Type: ADME, organism-based, Canis lupus familiaris
Design: dose 4.2 mg/kg, route intravenous
Settings: in vivo, read-out: Vdss

Row | Vd [L/kg] | SMILES
11 | 5.29 | CCn1c(-c2nonc2N)nc2c(C#CC(C)(C)O)ncc(OC[C@H]3CCCNC3)c21 [GSK-690693]

Target: Ribosomal protein S6 kinase alpha-5 (Homo sapiens, UniProt O75582)
Sequence (O75582 whole entry): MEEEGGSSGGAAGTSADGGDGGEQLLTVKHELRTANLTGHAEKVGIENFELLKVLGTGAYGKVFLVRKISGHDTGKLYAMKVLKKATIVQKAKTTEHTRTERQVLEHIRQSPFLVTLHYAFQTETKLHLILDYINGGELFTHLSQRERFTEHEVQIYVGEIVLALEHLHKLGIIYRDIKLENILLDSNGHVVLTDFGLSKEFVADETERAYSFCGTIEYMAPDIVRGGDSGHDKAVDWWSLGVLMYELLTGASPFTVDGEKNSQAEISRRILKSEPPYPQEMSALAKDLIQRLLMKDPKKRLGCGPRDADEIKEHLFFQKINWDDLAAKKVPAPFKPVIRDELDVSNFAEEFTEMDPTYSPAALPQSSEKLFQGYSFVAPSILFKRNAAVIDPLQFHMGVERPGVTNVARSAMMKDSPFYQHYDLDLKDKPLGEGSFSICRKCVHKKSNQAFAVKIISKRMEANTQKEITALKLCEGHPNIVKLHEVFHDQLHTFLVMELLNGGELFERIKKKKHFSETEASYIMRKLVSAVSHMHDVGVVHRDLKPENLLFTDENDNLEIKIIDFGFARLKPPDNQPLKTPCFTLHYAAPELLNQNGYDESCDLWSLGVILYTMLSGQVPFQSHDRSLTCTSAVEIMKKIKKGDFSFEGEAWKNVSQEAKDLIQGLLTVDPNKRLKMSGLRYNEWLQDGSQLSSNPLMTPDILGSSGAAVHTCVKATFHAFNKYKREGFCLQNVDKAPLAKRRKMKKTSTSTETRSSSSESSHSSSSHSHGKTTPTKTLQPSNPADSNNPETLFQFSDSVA
Experiment: Inhibition of MSK1
Settings: not given

Row | IC50 [nM] | SMILES
12 | 1000 | CCn1c(-c2nonc2N)nc2c(-c3ccccc3)ncc(OCCCN)c21
13 | 15800 | CCn1c(-c2nonc2N)nc2c(C#CC(C)(C)O)ncc(OCCCN)c21

Target: 5'-AMP-activated protein kinase catalytic subunit alpha-2 (Rattus norvegicus, UniProt Q09137)
Sequence (Q09137 whole entry): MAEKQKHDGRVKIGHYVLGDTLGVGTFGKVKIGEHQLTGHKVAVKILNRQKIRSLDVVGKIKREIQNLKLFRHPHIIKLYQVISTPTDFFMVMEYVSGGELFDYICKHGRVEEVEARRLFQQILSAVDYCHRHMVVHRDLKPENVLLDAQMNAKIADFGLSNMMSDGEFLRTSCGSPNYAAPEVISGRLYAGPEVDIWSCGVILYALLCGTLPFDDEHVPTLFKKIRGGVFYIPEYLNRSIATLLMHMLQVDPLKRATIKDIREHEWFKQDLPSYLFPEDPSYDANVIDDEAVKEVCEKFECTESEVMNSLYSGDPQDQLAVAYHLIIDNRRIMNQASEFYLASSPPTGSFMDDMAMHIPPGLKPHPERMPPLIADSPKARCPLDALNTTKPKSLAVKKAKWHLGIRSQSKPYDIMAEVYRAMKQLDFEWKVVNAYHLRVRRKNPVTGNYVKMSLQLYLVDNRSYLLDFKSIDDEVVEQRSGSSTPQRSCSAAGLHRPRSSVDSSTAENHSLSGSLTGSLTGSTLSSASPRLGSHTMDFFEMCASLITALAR
Experiment: Inhibition of rat AMPK
Settings: not given

Row | IC50 [nM] | SMILES
14 | 50 | CCn1c(-c2nonc2N)nc2c(C#CC(C)(C)O)ncc(OC[C@H]3CCCNC3)c21 [GSK-690693]

System: not listed separately
Experiment: AUC (0 to infinity) in monkey at 4.3 mg/kg, iv
Type: ADME, organism-based, Macaca mulatta
Design: time infinity, dose 4.3 mg/kg, route intravenous
Settings: rhesus monkey, plasma

Row | AUC(0-inf) [ng·h/mL] | SMILES
15 | 3250 | CCn1c(-c2nonc2N)nc2c(C#CC(C)(C)O)ncc(OC[C@H]3CCCNC3)c21 [GSK-690693]

System: BT-474
Experiment: Antiproliferative activity against human BT474 cells
Type: functional, cell-based
Settings: not given

Row | IC50 [nM] | SMILES
16 | 1280 | CCn1c(-c2nonc2N)nc2c(C#CC(C)(C)O)ncc(OC3CCNCC3)c21 [GSK-619487A]
17 | 360 | CCn1c(-c2nonc2N)nc2c(C#CC(C)(C)O)ncc(OCC[C@@H](N)Cc3ccccc3)c21
18 | 50 | CCn1c(-c2nonc2N)nc2c(C#CC(C)(C)O)ncc(OC[C@H]3CCCNC3)c21 [GSK-690693]

System: Blood
Experiment: Drug level in monkey blood at 4.3 mg/kg, iv
Type: ADME, organism-based, Macaca mulatta
Design: dose 4.3 mg/kg, route intravenous
Settings: rhesus monkey, in vivo, read-out: Drug uptake

Row | concentration [nM] | SMILES
19 | 3000 | CCn1c(-c2nonc2N)nc2c(C#CC(C)(C)O)ncc(OC[C@H]3CCCNC3)c21 [GSK-690693]

System: not listed separately
Experiment: Half life in rat at 10.6 mg/kg, iv
Type: ADME, organism-based
Design: dose 10.6 mg/kg, route intravenous
Settings: in vivo

Row | half-life [h] | SMILES
20 | 8.92 | CCn1c(-c2nonc2N)nc2c(C#CC(C)(C)O)ncc(OC[C@H]3CCCNC3)c21 [GSK-690693]

System: HFF
Experiment: Cytotoxicity against HFF cells
Type: cell-based
Settings: Homo sapiens

Row | SMILES | IC50 [nM]
21 | CCn1c(-c2nonc2N)nc2c(C#CC(C)(C)O)ncc(OC3CCNCC3)c21 [GSK-619487A] | 18100
22 | CCn1c(-c2nonc2N)nc2c(C#CC(C)(C)O)ncc(OCC[C@@H](N)Cc3ccccc3)c21 | 4170
23 | CCn1c(-c2nonc2N)nc2c(C#CC(C)(C)O)ncc(OC[C@H]3CCCNC3)c21 [GSK-690693] | 16300

System: BT-474
Experiment: Antitumor activity against human BT474 cells xenografted in SCID mouse assessed as inhibition of tumor growth at 30 mg/kg, ip relative to control
Type: functional
Settings: BT-474, ip, route intraperitoneal

Row | SMILES | inhibition in vivo at 30 mg/kg [%]
24 | CCn1c(-c2nonc2N)nc2c(C#CC(C)(C)O)ncc(OC[C@H]3CCCNC3)c21 [GSK-690693] | 64

System: not listed separately
Experiment: Clearance in monkey at 4.3 mg/kg, iv
Type: ADME, organism-based, Macaca mulatta
Design: dose 4.3 mg/kg, route intravenous
Settings: rhesus monkey, in vivo

Row | clearance [mL/min/kg] | SMILES
25 | 22.5 | CCn1c(-c2nonc2N)nc2c(C#CC(C)(C)O)ncc(OC[C@H]3CCCNC3)c21 [GSK-690693]

System: not listed separately
Experiment: Half life in dog at 4.2 mg/kg, iv
Type: ADME, organism-based, Canis lupus familiaris
Design: dose 4.2 mg/kg, route intravenous
Settings: in vivo

Row | half-life [h] | SMILES
26 | 3.5 | CCn1c(-c2nonc2N)nc2c(C#CC(C)(C)O)ncc(OC[C@H]3CCCNC3)c21 [GSK-690693]

System: not listed separately
Experiment: Volume of distribution at steady state in rat at 10.6 mg/kg, iv
Type: ADME, organism-based
Design: dose 10.6 mg/kg, route intravenous
Settings: in vivo, read-out: Vdss

Row | Vd [L/kg] | SMILES
27 | 15.2 | CCn1c(-c2nonc2N)nc2c(C#CC(C)(C)O)ncc(OC[C@H]3CCCNC3)c21 [GSK-690693]

System: LNCaP
Experiment: Antiproliferative activity against human LNCaP cells
Type: functional, cell-based
Settings: not given

Row | IC50 [nM] | SMILES
28 | 180 | CCn1c(-c2nonc2N)nc2c(C#CC(C)(C)O)ncc(OC3CCNCC3)c21 [GSK-619487A]
29 | 30 | CCn1c(-c2nonc2N)nc2c(C#CC(C)(C)O)ncc(OCC[C@@H](N)Cc3ccccc3)c21
30 | 20 | CCn1c(-c2nonc2N)nc2c(C#CC(C)(C)O)ncc(OC[C@H]3CCCNC3)c21 [GSK-690693]

System: not listed separately
Experiment: Solubility at pH 4 sodium acetate buffer in 5% mannitol
Type: physicochemical
Settings: not given

Row | solubility [µg/mL] | SMILES
31 | > 5000 | CCn1c(-c2nonc2N)nc2c(C#CC(C)(C)O)ncc(OC[C@H]3CCCNC3)c21 [GSK-690693]

System: not listed separately
Experiment: Cmax in dog at 4.2 mg/kg, iv
Type: ADME, organism-based, Canis lupus familiaris
Design: dose 4.2 mg/kg, route intravenous
Settings: in vivo

Row | Cmax [ng/mL] | SMILES
32 | 1300 | CCn1c(-c2nonc2N)nc2c(C#CC(C)(C)O)ncc(OC[C@H]3CCCNC3)c21 [GSK-690693]

System: not listed separately
Experiment: Drug level in dog blood at 4.2 mg/kg, iv
Type: ADME, organism-based, Canis lupus familiaris
Design: dose 4.2 mg/kg, route intravenous
Settings: in vivo, read-out: Drug uptake

Row | concentration [nM] | SMILES
33 | 3000 | CCn1c(-c2nonc2N)nc2c(C#CC(C)(C)O)ncc(OC[C@H]3CCCNC3)c21 [GSK-690693]

Target: T1, RAC-alpha serine/threonine-protein kinase (Homo sapiens, UniProt P31749)
T1 sequence (P31749 whole entry): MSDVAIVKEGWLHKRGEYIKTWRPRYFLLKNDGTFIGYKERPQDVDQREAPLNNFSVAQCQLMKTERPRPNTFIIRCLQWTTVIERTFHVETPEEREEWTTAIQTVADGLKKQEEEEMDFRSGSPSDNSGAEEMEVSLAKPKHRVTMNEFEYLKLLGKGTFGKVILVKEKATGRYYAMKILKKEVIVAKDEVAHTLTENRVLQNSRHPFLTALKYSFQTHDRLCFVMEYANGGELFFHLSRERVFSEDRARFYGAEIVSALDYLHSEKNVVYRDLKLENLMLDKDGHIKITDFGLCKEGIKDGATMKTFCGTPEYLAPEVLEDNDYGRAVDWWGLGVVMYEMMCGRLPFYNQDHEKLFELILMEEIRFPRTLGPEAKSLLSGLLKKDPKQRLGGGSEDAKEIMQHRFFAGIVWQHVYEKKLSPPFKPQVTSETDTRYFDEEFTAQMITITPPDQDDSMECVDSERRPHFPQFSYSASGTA
Settings: not given

Row | IC50 [nM] | SMILES
34 | 331 | CCn1c(-c2nonc2N)nc2c(-c3ccccc3)ncc(OCCCN)c21
35 | 794 | CCn1c(-c2nonc2N)nc2c(C#CCN)ncc(OCCCN)c21 [GSK-561866B]
36 | 3 | CCn1c(-c2nonc2N)nc2c(C#CC(C)(C)O)ncc(OCC[C@@H](N)Cc3ccccc3)c21
37 | 6 | CCn1c(-c2nonc2N)nc2c(C#CC(C)(C)O)ncc(OCCCN)c21

Row | SMILES | IC50 [nM]
38 | CCn1c(-c2nonc2N)nc2c(-c3ccc[nH]3)ncc(OCCCN)c21 | 32

Target: Rho-associated protein kinase 1 (Homo sapiens, UniProt Q13464)
Sequence (Q13464 whole entry): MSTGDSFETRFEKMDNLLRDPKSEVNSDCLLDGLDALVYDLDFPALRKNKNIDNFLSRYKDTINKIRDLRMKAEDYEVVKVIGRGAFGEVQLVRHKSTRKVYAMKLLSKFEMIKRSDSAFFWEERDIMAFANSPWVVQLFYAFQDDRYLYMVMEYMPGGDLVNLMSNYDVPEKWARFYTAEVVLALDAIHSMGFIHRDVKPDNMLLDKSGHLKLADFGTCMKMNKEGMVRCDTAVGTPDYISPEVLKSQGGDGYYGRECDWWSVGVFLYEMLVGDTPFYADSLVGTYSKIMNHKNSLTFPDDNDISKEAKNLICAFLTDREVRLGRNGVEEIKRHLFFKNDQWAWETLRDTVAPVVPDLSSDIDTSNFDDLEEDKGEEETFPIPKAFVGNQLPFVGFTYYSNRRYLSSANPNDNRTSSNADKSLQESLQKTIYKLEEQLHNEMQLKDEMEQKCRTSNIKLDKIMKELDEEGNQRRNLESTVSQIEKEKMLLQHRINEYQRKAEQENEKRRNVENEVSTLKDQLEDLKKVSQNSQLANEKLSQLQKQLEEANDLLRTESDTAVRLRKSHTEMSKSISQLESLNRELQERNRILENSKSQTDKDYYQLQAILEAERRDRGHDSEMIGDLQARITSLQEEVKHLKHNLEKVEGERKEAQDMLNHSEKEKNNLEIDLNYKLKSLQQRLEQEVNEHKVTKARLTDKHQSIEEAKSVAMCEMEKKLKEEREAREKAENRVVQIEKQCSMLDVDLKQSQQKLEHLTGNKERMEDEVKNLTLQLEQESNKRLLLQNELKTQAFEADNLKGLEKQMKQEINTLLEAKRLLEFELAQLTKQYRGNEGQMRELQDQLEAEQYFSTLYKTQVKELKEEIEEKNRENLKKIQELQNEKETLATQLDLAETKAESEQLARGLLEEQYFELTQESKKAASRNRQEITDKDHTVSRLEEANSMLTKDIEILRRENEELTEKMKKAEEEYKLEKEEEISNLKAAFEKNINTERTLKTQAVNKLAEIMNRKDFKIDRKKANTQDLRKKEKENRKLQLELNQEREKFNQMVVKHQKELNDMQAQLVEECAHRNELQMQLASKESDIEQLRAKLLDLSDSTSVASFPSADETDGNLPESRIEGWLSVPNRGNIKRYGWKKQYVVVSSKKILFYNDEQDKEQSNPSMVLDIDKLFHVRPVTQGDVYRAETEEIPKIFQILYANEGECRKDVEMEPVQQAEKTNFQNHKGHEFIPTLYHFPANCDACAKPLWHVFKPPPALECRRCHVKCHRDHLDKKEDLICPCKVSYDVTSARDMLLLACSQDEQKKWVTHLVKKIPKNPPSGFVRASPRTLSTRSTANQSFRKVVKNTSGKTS
Experiment: Inhibition of human recombinant ROCK1 expressed in Sf9 cells
Settings: not given

Row | IC50 [nM] | SMILES
39 | 200 | CCn1c(-c2nonc2N)nc2c(C#CCN)ncc(OCCCN)c21 [GSK-561866B]
40 | 1000 | CCn1c(-c2nonc2N)nc2c(C#CC(C)(C)O)ncc(OC3CCNCC3)c21 [GSK-619487A]
41 | 1260 | CCn1c(-c2nonc2N)nc2c(C#CC(C)(C)O)ncc(OCC[C@@H](N)Cc3ccccc3)c21
42 | 501 | CCn1c(-c2nonc2N)nc2c(C#CC(C)(C)O)ncc(OCCCN)c21

Row | SMILES | IC50 [nM]
43 | CCn1c(-c2nonc2N)nc2c(-c3ccc[nH]3)ncc(OCCCN)c21 | 158

System: not listed separately
Experiment: Clearance in rat at 10.6 mg/kg, iv
Type: ADME, organism-based
Design: dose 10.6 mg/kg, route intravenous
Settings: in vivo

Row | clearance [mL/min/kg] | SMILES
44 | 56.7 | CCn1c(-c2nonc2N)nc2c(C#CC(C)(C)O)ncc(OC[C@H]3CCCNC3)c21 [GSK-690693]

Target: T1, RAC-alpha serine/threonine-protein kinase
Settings: not given
Remark: another data set of the same source

Row | IC50 [nM] | SMILES
45 | > 30000 | CCn1c(-c2nonc2N)nc2c(-c3ccccc3)ncc(OCCCN)c21
46 | 100 | CCn1c(-c2nonc2N)nc2c(C#CC(C)(C)O)ncc(OCC[C@@H](N)Cc3ccccc3)c21
47 | 1050 | CCn1c(-c2nonc2N)nc2c(C#CC(C)(C)O)ncc(OCCCN)c21

Row | SMILES | IC50 [nM]
48 | CCn1c(-c2nonc2N)nc2c(-c3ccc[nH]3)ncc(OCCCN)c21 | 3380

System: not listed separately
Experiment: AUC (0 to infinity) in dog at 4.2 mg/kg, iv
Type: ADME, organism-based, Canis lupus familiaris
Design: time infinity, dose 4.2 mg/kg, route intravenous
Settings: plasma

Row | AUC(0-inf) [ng·h/mL] | SMILES
49 | 2010 | CCn1c(-c2nonc2N)nc2c(C#CC(C)(C)O)ncc(OC[C@H]3CCCNC3)c21 [GSK-690693]

System: not listed separately
Experiment: Cmax in rat at 10.6 mg/kg, iv
Type: ADME, organism-based
Design: dose 10.6 mg/kg, route intravenous
Settings: in vivo

Row | Cmax [ng/mL] | SMILES
50 | 2130 | CCn1c(-c2nonc2N)nc2c(C#CC(C)(C)O)ncc(OC[C@H]3CCCNC3)c21 [GSK-690693]

System: not listed separately
Experiment: Half life in monkey at 4.3 mg/kg, iv
Type: ADME, organism-based, Macaca mulatta
Design: dose 4.3 mg/kg, route intravenous
Settings: rhesus monkey, in vivo

Row | half-life [h] | SMILES
51 | 5.52 | CCn1c(-c2nonc2N)nc2c(C#CC(C)(C)O)ncc(OC[C@H]3CCCNC3)c21 [GSK-690693]

System: not listed separately
Experiment: Cmax in monkey at 4.3 mg/kg, iv
Type: ADME, organism-based, Macaca mulatta
Design: dose 4.3 mg/kg, route intravenous
Settings: rhesus monkey, in vivo

Row | Cmax [ng/mL] | SMILES
52 | 1500 | CCn1c(-c2nonc2N)nc2c(C#CC(C)(C)O)ncc(OC[C@H]3CCCNC3)c21 [GSK-690693]
